Experimental data: ChEMBL document CHEMBL2429780, “Synthesis, antimicrobial and cytotoxic activity of 2-azetidinone derivatives of pyridyl benzimidazoles” (Med Chem Res, 2013)
Activity calls are given as the source filed them.

Experiments:
Type in all cases: functional, organism-based
Streptococcus pyogenes = test: Antibacterial activity against Streptococcus pyogenes MTCC 442 assessed as growth inhibition at 12.5 to 1000 ug/mL after 24 hrs by broth dilution assay
Staphylococcus aureus = test: Antibacterial activity against Staphylococcus aureus MTCC 96 assessed as growth inhibition at 12.5 to 1000 ug/mL after 24 hrs by broth dilution assay
Aspergillus niger = test: Antifungal activity against Aspergillus niger assessed as growth inhibition at 12.5 to 1000 ug/mL after 48 hrs by broth dilution assay
Candida albicans = test: Antifungal activity against Candida albicans assessed as growth inhibition at 12.5 to 1000 ug/mL after 48 hrs by broth dilution assay
Escherichia coli = test: Antibacterial activity against Escherichia coli MTCC 443 assessed as growth inhibition at 12.5 to 1000 ug/mL after 24 hrs by broth dilution assay
Pseudomonas aeruginosa = test: Antibacterial activity against Pseudomonas aeruginosa MTCC 1688 assessed as growth inhibition at 12.5 to 1000 ug/mL after 24 hrs by broth dilution assay
Aspergillus clavatus = test: Antifungal activity against Aspergillus clavatus assessed as growth inhibition at 12.5 to 1000 ug/mL after 48 hrs by broth dilution assay

Measured: growth inhibition (GI)

N#Cc1c(-c2ccccc2O)cc(-c2nc3ccccc3[nH]2)nc1N
inactive: all assays above

Cc1cccc(-c2cc(-c3nc4ccccc4[nH]3)nc(N)c2C#N)c1
inactive: all assays above

N#Cc1c(-c2ccc(Cl)cc2O)cc(-c2nc3ccccc3[nH]2)nc1N
inactive: all assays above

N#Cc1c(-c2ccccc2Cl)cc(-c2nc3ccccc3[nH]2)nc1N
inactive: all assays above
